The record followed here is patent publication US10179781B2, “Sodium channel modulators for the treatment of pain” (CHROMOCELL CORPORATION, priority 2013, dated 2019).

Assay [1] concerns Acetic Acid Writhing Model. As to the kind of experiment: Acetic Acid Writhing Model (visceral pain). In kind it is in vivo. The settings on record: relative to vehicle control; 10 to 30 mg/kg intraperitoneal. As for the experimental part:
Writhing Model The Acetic Acid Writhing Model is associated with visceral pain (abdominal pain, such as stomach pain, and pain caused by, for example, bile duct congestion and kidney stones). A writhing test assesses acute peritoneovisceral pain. After acclimation of 2-3 days, a test compound, positive control or vehicle control is administered by intraperitoneal injection (i.p.) or by oral gavage 15-30 minutes prior to administration of acetic acid. The time of administration of test compound is recorded. For mice: 0.6% Acetic acid solution in saline is injected i.p in a volume of 10 ml/kg. For rats: 4% acetic acid in saline is injected i.p in a volume of 2 ml/kg at T=0 minutes. Each animal is placed in a clear plastic cage. At T=5 minutes, the number of writhing movements is counted over a 45 minute period. Alternatively, the writhing movements are counted over a 5-minute period and repeated every 5 minutes, starting at T=5 minutes over a 45-minute period.
On the technique in general: Writhing tests count abdominal constrictions after an irritant is injected.

A further assay has as its target T1, NaV1.7 (Homo sapiens, UniProt Q15858).
T1 construct: expressed in transfected cells
As to the kind of experiment: FDSS membrane potential in-vitro assay. In kind it is cell-based. To be noted: HEK293 cells expressing NaV1.7 α, β1, β2, veratridine and scorpion venom stimulation.

Molecules are shown by their SMILES.

T1 sequence (Q15858 whole entry): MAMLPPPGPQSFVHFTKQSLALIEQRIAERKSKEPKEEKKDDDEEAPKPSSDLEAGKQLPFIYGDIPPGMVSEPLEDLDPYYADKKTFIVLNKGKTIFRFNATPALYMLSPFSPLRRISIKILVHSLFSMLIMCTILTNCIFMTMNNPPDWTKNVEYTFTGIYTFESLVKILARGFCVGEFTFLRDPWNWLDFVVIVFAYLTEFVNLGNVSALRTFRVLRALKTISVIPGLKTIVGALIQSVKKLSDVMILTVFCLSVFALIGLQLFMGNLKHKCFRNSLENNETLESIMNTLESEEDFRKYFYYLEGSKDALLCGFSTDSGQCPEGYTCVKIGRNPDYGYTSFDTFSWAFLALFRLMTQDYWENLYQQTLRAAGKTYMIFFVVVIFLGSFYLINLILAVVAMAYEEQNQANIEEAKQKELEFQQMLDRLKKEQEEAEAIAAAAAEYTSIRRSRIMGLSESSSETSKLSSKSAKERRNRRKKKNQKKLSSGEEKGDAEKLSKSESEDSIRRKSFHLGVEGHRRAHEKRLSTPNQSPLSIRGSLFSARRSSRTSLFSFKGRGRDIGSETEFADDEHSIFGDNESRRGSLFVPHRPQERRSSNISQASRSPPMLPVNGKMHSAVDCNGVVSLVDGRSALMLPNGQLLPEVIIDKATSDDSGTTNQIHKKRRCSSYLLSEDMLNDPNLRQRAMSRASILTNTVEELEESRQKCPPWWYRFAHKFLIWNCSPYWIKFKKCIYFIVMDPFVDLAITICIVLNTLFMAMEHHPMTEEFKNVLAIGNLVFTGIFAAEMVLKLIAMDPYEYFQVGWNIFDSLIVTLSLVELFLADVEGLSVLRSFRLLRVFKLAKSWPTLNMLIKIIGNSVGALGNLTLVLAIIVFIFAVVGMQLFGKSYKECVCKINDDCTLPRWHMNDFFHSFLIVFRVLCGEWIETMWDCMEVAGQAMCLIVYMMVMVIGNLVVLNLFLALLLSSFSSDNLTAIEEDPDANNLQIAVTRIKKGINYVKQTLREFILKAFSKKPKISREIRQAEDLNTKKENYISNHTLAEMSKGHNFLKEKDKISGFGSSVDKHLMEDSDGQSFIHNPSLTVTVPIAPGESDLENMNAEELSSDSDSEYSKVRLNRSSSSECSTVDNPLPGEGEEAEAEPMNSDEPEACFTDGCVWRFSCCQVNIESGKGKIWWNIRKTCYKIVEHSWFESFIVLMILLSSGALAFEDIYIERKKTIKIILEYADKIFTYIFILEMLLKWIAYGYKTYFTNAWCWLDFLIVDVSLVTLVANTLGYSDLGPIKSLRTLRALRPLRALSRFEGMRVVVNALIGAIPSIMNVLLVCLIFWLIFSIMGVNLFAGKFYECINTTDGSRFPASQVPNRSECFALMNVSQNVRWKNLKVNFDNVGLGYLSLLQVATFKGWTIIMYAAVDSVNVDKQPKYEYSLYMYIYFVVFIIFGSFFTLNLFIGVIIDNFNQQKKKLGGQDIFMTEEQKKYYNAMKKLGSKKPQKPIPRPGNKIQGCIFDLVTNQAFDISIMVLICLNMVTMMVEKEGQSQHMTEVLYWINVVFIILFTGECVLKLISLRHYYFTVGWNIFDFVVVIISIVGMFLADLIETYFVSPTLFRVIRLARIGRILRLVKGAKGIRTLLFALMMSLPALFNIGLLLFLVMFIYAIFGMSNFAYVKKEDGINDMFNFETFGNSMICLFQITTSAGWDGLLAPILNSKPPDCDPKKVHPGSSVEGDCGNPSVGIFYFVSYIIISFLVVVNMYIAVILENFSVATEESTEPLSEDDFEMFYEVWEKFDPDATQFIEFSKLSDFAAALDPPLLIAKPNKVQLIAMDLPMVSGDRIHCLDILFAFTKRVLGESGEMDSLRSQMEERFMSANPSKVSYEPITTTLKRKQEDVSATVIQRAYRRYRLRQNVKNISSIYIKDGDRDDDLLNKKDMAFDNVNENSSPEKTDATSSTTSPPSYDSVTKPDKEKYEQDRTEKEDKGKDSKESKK
T1 sequence (Q07699 19-218 partner): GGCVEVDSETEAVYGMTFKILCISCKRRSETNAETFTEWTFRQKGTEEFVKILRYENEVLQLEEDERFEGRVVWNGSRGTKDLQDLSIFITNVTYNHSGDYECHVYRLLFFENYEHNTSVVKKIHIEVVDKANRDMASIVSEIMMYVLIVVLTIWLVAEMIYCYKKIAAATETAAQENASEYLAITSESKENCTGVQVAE
T1 sequence (O60939 30-215 partner): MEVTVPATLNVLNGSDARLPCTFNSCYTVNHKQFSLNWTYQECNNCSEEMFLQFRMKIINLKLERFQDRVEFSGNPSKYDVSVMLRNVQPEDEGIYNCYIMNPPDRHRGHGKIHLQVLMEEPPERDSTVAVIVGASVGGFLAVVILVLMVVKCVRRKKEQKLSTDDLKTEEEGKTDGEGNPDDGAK

For `O=C(O)CNC(=O)c1cc(-c2cc(Cl)ccc2Oc2cc(F)c(S(=O)(=O)Nc3ncns3)cc2Cl)ccn1` [Example 2, 2-(4-(2-(4-(N-(1,2,4-thiadiazol-5-yl)sulfamoyl)-2-chloro-5-fluorophenoxy)-5-chlorophenyl)picolinamido)acetic acid], the “reduction in pain response, writhing” value in assay [1] was 48-58%. What is called IC50 is the midpoint of a concentration-inhibition curve. The molecule `O=C(O)C1CCN(CCCc2cc(Cl)ccc2Oc2cc(F)c(S(=O)(=O)Nc3cscn3)cc2Cl)CC1` [Example 14, 1-(3-(5-chloro-2-(2-chloro-5-fluoro-4-(N-(thiazol-4-yl)sulfamoyl)phenoxy)phenyl)propyl)piperidine-4-carboxylic acid] returned an IC50 against NaV1.7 of over 1 µM. Molecule `NC(CCNCCCc1cc(Cl)ccc1Oc1cc(F)c(S(=O)(=O)Nc2cscn2)cc1Cl)C(=O)O` (stereo not shown) [Example 17, 2-amino-4-((3-(5-chloro-2-(2-chloro-5-fluoro-4-(N-(thiazol-4-yl)sulfamoyl)phenoxy)phenyl)propyl)amino)butanoic acid] registered an IC50 on NaV1.7 of over 1 µM. The molecule `O=C(O)C1CCCN(CCCc2cc(Cl)ccc2Oc2cc(F)c(S(=O)(=O)Nc3cscn3)cc2Cl)C1` (stereo not shown) [Example 19, 1-(3-(5-chloro-2-(2-chloro-5-fluoro-4-(N-(thiazol-4-yl)sulfamoyl)phenoxy)phenyl)propyl)piperidine-3-carboxylic acid] gave an IC50 on NaV1.7 of over 1 µM. The same measure, in the same setting: the same measure for `O=C(O)CNCCCc1cc(Cl)ccc1Oc1cc(F)c(S(=O)(=O)Nc2cscn2)cc1F` [Example 21, 2-((3-(5-chloro-2-(2,5-difluoro-4-(N-(thiazol-4-yl)sulfamoyl)phenoxy)phenyl)propyl)amino)acetic acid]: over 1 µM. Take `O=C(O)CCNCCCc1cc(Cl)ccc1Oc1cc(F)c(S(=O)(=O)Nc2cscn2)cc1F` [Example 22, 3-((3-(5-chloro-2-(2,5-difluoro-4-(N-(thiazol-4-yl)sulfamoyl)phenoxy)phenyl)propyl)amino)propanoic acid]: the IC50 against NaV1.7 was over 1 µM. As to `N#Cc1cc(S(=O)(=O)Nc2cscn2)ccc1Oc1ccc(Cl)cc1CCCNCCC(=O)O` [Example 23, 3-((3-(5-chloro-2-(2-cyano-4-(N-(thiazol-4-yl)sulfamoyl)phenoxy)phenyl)propyl)amino)propanoic acid], the IC50 against NaV1.7 was over 1 µM.
